Test results reported in patent US7064145B2, “Inhibition of beta cell degeneration” (Novo Nordisk A/S, priority 2000, dated 2006).
Where “and” joins values, the source holds several entries; their conditions need not be identical. Identical values can stand only once. Ends that are not written are not given here.

Experiments:
[1] = tested on: remnant and regenerated pancreatic tissue (beta cells); test: Pancreatic tissue regeneration, BrdU and insulin immunohistochemistry after 60% pancreatectomy; assay type: in vivo, Sprague-Dawley rats; set-up: key to Amount of regenerated tissue: The amount of regenerated tissue was scored on the following range: −, (+), +, ++, +++; The amount of regenerated tissue was scored on the following range: −, (+), +, ++, +++; The amount of regenerated tissue was scored on the following range: −, (+), +, ++, +++; The amount of regenerated tissue was scored on the following range: −, (+), +, ++, +++; The amount of regenerated tissue was scored on the following range: −, (+), +, ++, +++; conditions: 20 mg/kg p.o. x2, day 4 to 8
Experimental: A 60% pancreatectomy was performed on a total of 12 male Sprague-Dawley rats. Vehicle and the DPP-IV inhibitor Val-Pyr was administered to 6 of these from day 4 to 8 in a dose of 20 mg/kg p.o. x2, while the remaining 6 rats were treated with vehicle alone.
The proliferation of beta cells was measured as incorporation of the thymidine analogue 5-bromo-2-deoxyuridine (BrdU) into DNA in insulin-positive cells. 8 days after the 60% pancreatectomy, 100 mg/kg BrdU was administered i.p. and 4 hours later the area containing remnant and regenerated pancreatic tissue was removed and processed for immunohistochemistry. Three adjacent sections from each animal were stained for insulin and BrdU. The amount of regenerated tissue was scored on the following range: −, (+), +, ++, +++. The location of BrDU was examined in regenerated pancreatic (reg) and exocrine (ex) tissue. Insulin staining was scored as weak (W), normal (N), and in regenerated tissue (+R).

[2] = Oral Glucose Tolerance Test (OGTT) at day 8 in 60% pancreatectomized rats; assay type: in vivo, Sprague-Dawley rats; conditions: 20 mg/kg p.o. x2, day 4 to 8
[3] = tested on: pancreatic islet cells from newborn rats; test: Beta cell proliferation in vitro (BrdU incorporation into DNA in insulin-positive cells); assay type: cell-based
Experimental: In our efforts to identify beta cell growth factors we discovered that GLP-1 indeed could stimulate beta cell proliferation in vitro. The proliferation was measured as incorporation of the thymidine analogue 5-bromo-2-deoxyuridine (BrdU) into DNA in insulin-positive cells in pancreatic islet cells from newborn rats.

Row | Molecule | Animals with insulin expressed in islets located in the regenerating pancreatic tissue ([1]; vehicle alone 1 out of 6) | Amount of regenerated tissue ([1]; per animal, tissue removed 8 days after 60% pancreatectomy, 20 mg/kg) | Glucose excursion AUC after OGTT [2] | Number of labelled (BrdU) beta cells [3]
1 | CC(C)[C@H](N)C(=O)N1CCCC1 [Val-Pyr] | 5 out of 6 | + (5×) and ++ | ~50 % of vehicle | 
2 | GLP-1: insulinotropic hormone Glucagon like peptide-1 (HAEGTFTSDVSSYLEGQAAKEFIAWLVKGR; ends and bridges not checked; UniProt P01275 98-127, looked up) |  |  |  | increase the number of labelled beta cells
